Target: T1, Prostacyclin Receptors (IP Receptors) of Human Thrombocyte Membranes (Homo sapiens, UniProt P43119)
T1 construct: Thrombocyte membranes are obtained by centrifuging 50 ml human blood; tissue Maco Pharma, Langen (buffy coats); host or cells: human thrombocyte (platelet) membranes from human blood
Test: Binding to prostacyclin receptors (IP receptors) of human thrombocyte membranes (3H-Iloprost displacement)
Details: 3 nM 3H-Iloprost, 300-1000 μg/ml human thrombocyte membranes, 60 min, room temperature
Procedure: B-1. Studies of Binding to Prostacyclin Receptors (IP Receptors) of Human Thrombocyte Membranes
Thrombocyte membranes are obtained by centrifuging 50 ml human blood (Buffy coats with CDP Stabilizer, from Maco Pharma, Langen) for 20 min at 160×g. Remove the supernatant (platelet-rich plasma, PRP) and then centrifuge again at 2000×g for 10 min at room temperature. Resuspend the sediment in 50 mM tris-(hydroxymethyl)-aminomethane, which has been adjusted to a pH of 7.4 with 1 N hydrochloric acid, and store at −20° C. overnight. On the next day, centrifuge the suspension at 80000×g and 4° C. for 30 min. Discard the supernatant. Resuspend the sediment in 50 mM tris-(hydroxymethyl)-aminomethane/hydrochloric acid, 0.25 mM ethylene diamine tetraacetic acid (EDTA), pH 7.4, and then centrifuge once again at 80000×g and 4° C. for 30 min. Take up the membrane sediment in binding buffer (50 mM tris-(hydroxymethyl)-aminomethane/hydrochloric acid, 5 mM magnesium chloride, pH 7.4) and store at −70° C. until the binding test.
For the binding test, incubate 3 nM ^3H-Iloprost (592 GBq/mmol, from AmershamBioscience) for 60 min with 300-1000 μg/ml human thrombocyte membranes per charge (max. 0.2 ml) in the presence of the test substances at room temperature. After stopping, add cold binding buffer to the membranes and wash with 0.1% bovine serum albumin. After adding Ultima Gold Scintillator, quantify the radioactivity bound to the membranes using a scintillation counter. The nonspecific binding is defined as radioactivity in the presence of 1 μM Iloprost (from Cayman Chemical, Ann Arbor) and is as a rule <25% of the bound total radioactivity. The binding data (IC50 values) are determined using the program GraphPad Prism Version 3.02.

T1 sequence (P43119 whole entry): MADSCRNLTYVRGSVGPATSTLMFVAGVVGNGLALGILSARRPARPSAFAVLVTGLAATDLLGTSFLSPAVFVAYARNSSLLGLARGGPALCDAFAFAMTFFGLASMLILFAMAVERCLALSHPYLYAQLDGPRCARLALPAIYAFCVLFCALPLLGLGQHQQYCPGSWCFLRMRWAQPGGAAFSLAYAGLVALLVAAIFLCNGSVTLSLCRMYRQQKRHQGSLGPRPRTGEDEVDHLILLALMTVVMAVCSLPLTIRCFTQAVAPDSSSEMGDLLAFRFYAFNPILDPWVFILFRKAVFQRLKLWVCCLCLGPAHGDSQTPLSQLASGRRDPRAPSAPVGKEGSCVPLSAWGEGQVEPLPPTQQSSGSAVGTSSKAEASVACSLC

Row | SMILES | IC50 [nM]
1 | CCc1ccc(-c2c(-c3ccccc3)oc3ncnc(O[C@H](C)CCOCC(=O)O)c23)cc1 [Example 80, (−)-{[3-{[5-(4-Ethylphenyl)-6-phenylfuro[2,3-d]pyrimidin-4-yl]oxy}butyl]oxy}acetic acid] | 22
2 | COc1ccc(-c2c(-c3ccccc3)oc3ncnc(NCCCOCCc4nnn[nH]4)c23)cc1 [Example 15, 5-(4-Methoxyphenyl)-6-phenyl-N-{3-[2-(1H-tetrazol-5-yl)ethoxy]propyl}furo[2,3-d]pyrimidine-4-amine] | 82
3 | C=Cc1ccc(-c2c(-c3ccccc3)oc3ncnc(NCCCCCC(=O)O)c23)cc1 [Example 33] | 64
4 | CCc1ccc(-c2c(-c3ccccc3)oc3ncnc(NCCCCCC(=O)OC)c23)cc1 [Example 36] | 217
5 | COC(=O)CCCCCN(C)c1ncnc2oc(-c3ccccc3)c(-c3ccc(OC)cc3)c12 [Example 45, 6-{[5-(4-Methoxyphenyl)-6-phenylfuro[2,3-d]pyrimidin-4-yl](methyl)amino}hexanoic acid methyl ester] | 895
6 | COc1ccc(-c2c(-c3ccccc3)oc3ncnc(NCCCCCC(=O)O)c23)cc1 [Example 1, 6-{[5-(4-Methoxyphenyl)-6-phenylfuro[2,3-d]pyrimidin-4-yl]amino}hexanoic acid] | 206
7 | COc1ccc(-c2c(-c3ccccc3)oc3ncnc(NCCCCCc4nnn[nH]4)c23)cc1 [Example 4, 5-(4-Methoxyphenyl)-6-phenyl-N-[5-(1H-tetrazol-5-yl)pentyl]furo[2,3-d]pyrimidine-4-amine] | 34
8 | COc1ccc(-c2c(-c3ccccc3)oc3ncnc(OC(C)CC(C)OCC(=O)O)c23)cc1 (single isomer, unassigned; enantiomer 2) [Example 146, (3-{[5-(4-Methoxyphenyl)-6-phenylfuro[2,3-d]pyrimidin-4-yl]oxy}-1-methylbutoxy)acetic acid (Enantiomer 2)] | 7
9 | CCc1ccc(-c2c(-c3ccccc3)oc3ncnc(O[C@@H](C)COCCC(=O)O)c23)cc1 [Example 85, (+)-3-{[2-{[5-(4-Ethylphenyl)-6-phenylfuro[2,3-d]pyrimidin-4-yl]oxy}propyl]oxy}propionic acid] | 470
10 | COC(=O)CCCCC(C)Oc1ncnc2oc(-c3ccccc3)c(-c3ccc(OC)cc3)c12 (racemic) [Example 63, (+/−)-6-{[5-(4-Methoxyphenyl)-6-phenylfuro[2,3-d]pyrimidin-4-yl]oxy}heptanoic acid methyl ester] | 37
11 | COc1ccc(-c2c(-c3ccccc3)oc3ncnc(OCCCCCc4nnn[nH]4)c23)cc1 [Example 14, 5-(4-Methoxyphenyl)-6-phenyl-4-{[5-(1H-tetrazol-5-yl)pentyl]oxy}-furo[2,3-d]pyrimidine] | 49
12 | COc1ccc(-c2c(-c3ccccc3)oc3ncnc(OC[C@H](C)OCCC(=O)O)c23)cc1 [Example 83, (+)-3-{[(2S)-2-{[5-(4-Methoxyphenyl)-6-phenylfuro[2,3-d]pyrimidin-4-yl]oxy}-1-methylethoxy]-oxy}propionic acid] | 20
13 | COc1ccc(-c2c(-c3ccccc3F)oc3ncnc(O[C@@H](C)CN(C)CCCC(=O)O)c23)cc1 [Example 138, (+)-4-{[(2S)-2-{[6-(2-Fluorophenyl)-5-(4-methoxyphenyl)furo[2,3-d]pyrimidin-4-yl]oxy}propyl]-(methyl)amino}butyric acid] | 53
14 | COc1ccc(-c2c(-c3ccccc3)oc3ncnc(OCC(C)(C)COCC(=O)O)c23)cc1 [Example 95, (3-{[5-(4-Methoxyphenyl)-6-phenylfuro[2,3-d]pyrimidin-4-yl]oxy}-2,2-dimethylpropoxy)acetic acid] | 10
15 | COC(=O)CCCCCNc1ncnc2oc(-c3ccccc3F)c(-c3ccc(OC)cc3)c12 [Example 113, 6-{[6-(2-Fluorophenyl)-5-(4-methoxyphenyl)furo[2,3-d]pyrimidin-4-yl]amino}hexanoic acid methyl ester] | 51
16 | COc1ccc(-c2c(-c3ccccc3C)oc3ncnc(NCCCCCC(=O)O)c23)cc1 [Example 122, 6-{[5-(4-Methoxyphenyl)-6-(2-methylphenyl)furo[2,3-d]pyrimidin-4-yl]amino}hexanoic acid] | 48
17 | CCc1ccc(-c2c(-c3ccccc3F)oc3ncnc(O[C@H](C)CCCCC(=O)O)c23)cc1 [Example 142, (−)-(6R)-6-{[5-(4-Ethylphenyl)-6-(2-fluorophenyl)furo[2,3-d]pyrimidin-4-yl]oxy}heptanoic acid] | 2.5
18 | COc1ccc(-c2c(-c3ccccc3)oc3ncnc(O[C@H](C)CCCCC(=O)O)c23)cc1 (single isomer, unassigned; enantiomer 2) [Example 69, (−)-6-{[5-(4-Methoxyphenyl)-6-phenylfuro[2,3-d]pyrimidin-4-yl]oxy}heptanoic acid (Enantiomer 2)] | 9
19 | COc1ccc(-c2c(-c3ccccc3)oc3ncnc(OCC(C)COCC(=O)O)c23)cc1 (single isomer, unassigned; enantiomer 1) [Example 128, (+)-(3-{[5-(4-Methoxyphenyl)-6-phenylfuro[2,3-d]pyrimidin-4-yl]oxy}-2-methylpropoxy)acetic acid (Enantiomer 1)] | 33
20 | CCc1ccc(-c2c(-c3ccccc3F)oc3ncnc(OC[C@H](C)OCCC(=O)O)c23)cc1 [Example 156, 3-[(1S)-2-{[5-(4-Ethylphenyl)-6-(2-fluorophenyl)furo[2,3-d]pyrimidin-4-yl]oxy}-1-methylethoxy]-propionic acid] | 13
21 | COc1ccc(-c2c(-c3ccccc3Cl)oc3ncnc(NCCCCCC(=O)O)c23)cc1 [Example 117, 6-{[6-(2-Chlorophenyl)-5-(4-methoxyphenyl)furo[2,3-d]pyrimidin-4-yl]amino}hexanoic acid] | 84
22 | COc1ccc(-c2c(-c3ccccc3)oc3ncnc(OC(C)CN(C)CCCC(=O)O)c23)cc1 (racemic) [Example 92, (+/−)-4-[(2-{[5-(4-Methoxyphenyl)-6-phenylfuro[2,3-d]pyrimidin-4-yl]oxy}propyl)(methyl)-amino]butanoic acid] | 219
23 | CCOC(=O)COC[C@@H](C)COc1ncnc2oc(-c3ccccc3F)c(-c3ccc(OC)cc3)c12 [Example 152, (−)-{[(2R)-3-{[5-(4-Methoxyphenyl)-6-(2-fluorophenyl)furo[2,3-d]pyrimidin-4-yl]oxy}-2-methyl-propyl]oxy}acetic acid ethyl ester] | 3.7
24 | CCc1ccc(-c2c(-c3ccccc3F)oc3ncnc(OC[C@H](C)COCC(=O)O)c23)cc1 [Example 154, (−)-{[(2R)-3-{[5-(4-Ethylphenyl)-6-(2-fluorophenyl)furo[2,3-d]pyrimidin-4-yl]oxy}-2-methyl-propyl]oxy}acetic acid] | 3.8
25 | CCc1ccc(-c2c(-c3ccccc3)oc3ncnc(O[C@@H](C)CN(C)CCCC(=O)O)c23)cc1 [Example 140, (+)-4-{[(2S)-2-{[5-(4-Ethylphenyl)-6-phenylfuro[2,3-d]pyrimidin-4-yl]oxy}propyl](methyl)-amino}butyric acid] | 52

— US8183246B2, “Acyclically substituted furopyrimidine derivatives and use thereof” (Bayer Intellectual Property GmbH, priority 2005, dated 2012)
